Source: article PMC13385394, “Cryo-EM Structure of the TRPC1/5 Heteromer Enables Design of Antidepressant and Anxiolytic Drug with Reduced Side Effects” (Nature Communications, 2026)
“Also recorded” adds a separate entry of the source.

What was measured:
[1] = target: T1, TRPC5 homomers (Homo sapiens, UniProt Q9UL62); test: Whole-cell patch-clamp, inhibition of EA-activated TRPC5 homomers; format: cell-based; details: whole-cell patch-clamp
T1 construct: full length hTRPC5 (TRPC5 wild type (WT)); expressed in transfected cells; host or cells: HEK293T
T1 sequence (Q9UL62 1-973): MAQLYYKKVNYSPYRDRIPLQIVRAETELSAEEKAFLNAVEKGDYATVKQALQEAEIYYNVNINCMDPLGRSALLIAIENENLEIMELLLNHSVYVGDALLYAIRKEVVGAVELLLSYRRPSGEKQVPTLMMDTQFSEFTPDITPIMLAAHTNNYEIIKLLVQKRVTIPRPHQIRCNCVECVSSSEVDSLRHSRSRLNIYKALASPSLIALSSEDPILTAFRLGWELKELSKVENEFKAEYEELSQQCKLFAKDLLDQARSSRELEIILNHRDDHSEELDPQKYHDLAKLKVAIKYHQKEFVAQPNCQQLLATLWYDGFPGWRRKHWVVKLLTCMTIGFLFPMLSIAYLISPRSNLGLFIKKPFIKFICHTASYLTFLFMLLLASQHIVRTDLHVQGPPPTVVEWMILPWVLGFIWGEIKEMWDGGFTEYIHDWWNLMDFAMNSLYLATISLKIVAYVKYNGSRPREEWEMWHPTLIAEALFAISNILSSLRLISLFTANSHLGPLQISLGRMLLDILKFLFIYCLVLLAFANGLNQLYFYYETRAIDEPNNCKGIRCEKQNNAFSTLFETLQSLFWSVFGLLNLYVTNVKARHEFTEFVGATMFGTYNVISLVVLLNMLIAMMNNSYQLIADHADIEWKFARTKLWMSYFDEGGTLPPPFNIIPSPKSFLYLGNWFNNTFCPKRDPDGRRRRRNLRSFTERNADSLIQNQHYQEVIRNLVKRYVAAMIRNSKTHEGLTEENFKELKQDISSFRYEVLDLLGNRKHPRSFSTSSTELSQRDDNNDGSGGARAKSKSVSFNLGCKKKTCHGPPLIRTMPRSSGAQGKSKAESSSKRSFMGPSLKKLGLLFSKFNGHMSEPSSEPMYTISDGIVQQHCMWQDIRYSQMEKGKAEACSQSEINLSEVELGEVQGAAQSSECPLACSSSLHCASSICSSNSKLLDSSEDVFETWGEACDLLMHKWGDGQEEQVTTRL

[2] = target: T2, TRPC1/5 heteromers (Homo sapiens, UniProt P48995+Q9UL62); test: Whole-cell patch-clamp, inhibition of EA-activated TRPC1/5 heteromers; format: cell-based; details: whole-cell patch-clamp; read-out: IC50, TRPC1/C5
T2 construct: wild type plasmids full-length hTRPC1 (WT) and full-length hTRPC5 (WT); expressed in transfected cells; host or cells: HEK293T
Text: (§1) The full-length hTRPC5 or truncated mTRPC5, and the full-length hTRPC1 constructs was respectively co-transfected in a plasmid ration 1:3 (w/w) into HEK293T cells (from the ATCC). As previously described, a mCherry was inserted into TRPC5 constructs and a GFP was inserted at the C terminus of TRPC1. Therefore, Cells with red and green fluorescence were selected for whole-cell patch recordings (HEKA EPC10 amplifier, […] software (https://www.heka.com/downloads/downloads_main.html#down_patchmaster)). A 1-s ramp protocol from −100 to +100 mV was applied at a frequency of 0.2 Hz. Signals were sampled at 50 kHz and filtered at 2.9 kHz. The pipette solution contained 130 mM CsCl, 1 mM MgCl2, 5.7 mM CaCl2, 10 mM EGTA, and 10 mM Hepes (calculated free Ca^2+, 200 nM), and the pH was titrated to 7.2 using CsOH[40]. The standard bath solution contained 140 mM NaCl, 5 mM KCl, 1 mM MgCl2, 2 mM CaCl2, 10 mM Hepes, and 10 mM D-glucose, and the pH was adjusted to 7.4 with NaOH (1 M). The recording chamber (150 μL) was perfused at a rate of ~2 mL/min. All recordings were performed at room temperature.

[3] = tested on: healthy C57BL/6J mice; details: mouse, in vivo
Description: The Open-Field test (OFT) was utilized to evaluate the autonomous behavior, exploratory tendencies, and anxiety levels of experimental animals in a new environment. Each mouse was placed at the center of the container and given a 10-min exploration period. Before the test, the animals were acclimated to the experimental setting for 60 min. […] This cleaning procedure aimed to reduce the risk of contamination and prevent any misleading experimental results due to olfactory stimuli. Anxiety levels and exploratory behavior were assessed by measuring the time spent in the central area, the number of entries into the central area, and the total distance traveled by the mice.

[4] = tested on: diet-induced obesity (DIO) mice; test: Diet-induced obesity (DIO) model, body weight and food intake; format: in vivo, mouse; details: 11 days once daily, HC-070 and JD03-02 10 mg/kg i.g., Semaglutide 0.123 mg/kg s.c.
Description: A maximum of five mice were housed per cage during the acclimatization period, and three mice per cage during the experimental period. […] The day of administration was defined as day 1 (D1) of the experiment, with a single dose/day administered for 11 consecutive days. Daily observations were made on the animals’ general condition. Body weight was measured on days 1, 3, 5, 7, 9, and 11 post-administrations. Food intake was measured on days 1, 3, 5, 7, and 9 post-administrations by calculating the difference between the amount of food provided and the amount remaining in the cage, divided by the number of animals in the cage to determine the average food intake per mouse. The cumulative food intake during the experiment was calculated by summing the food intake measurements taken on different days.

[5] = tested on: CUMS-induced depressive-like behaviors; test: Sucrose preference test (SPT) in CUMS model; format: in vivo, mouse; details: CUMS mice
Description: (§2) The stressors included food and water deprivation, foot shock, wet bedding, cage tilting, restraint, shaking, and olfactory stimulation. These seven stressors were randomly applied each week to ensure unpredictability. The stress induction was maintained continuously for 28 days. Following model establishment, the tail suspension test (TST) was performed to confirm the successful induction of depressive-like behaviors. Mice that met the criteria were randomly assigned to experimental groups.
Acute Treatment: A single dose of the test compound was administered, followed by the sucrose preference test (SPT).
Chronic Treatment: Mice were treated daily for 14 consecutive days. The SPT was conducted on day 11, and the forced swimming test (FST) was performed on day 14.
Mice were acclimated to 1% sucrose solution and plain water for 2 days. On the second day, the positions of the sucrose solution and water were swapped to eliminate positional bias. […] Mice were provided with pre-weighed 1% sucrose solution and plain water. […] Sucrose preference (%) was calculated as Sucrose Preference = A/(A + B)×100.

[6] = tested on: CUMS-induced depressive-like behaviors; test: Forced swim test (FST) in CUMS model; format: in vivo, mouse; details: CUMS mice; 14 days once-daily oral; vs vehicle
Description: as §2, with “groups. Chronic Treatment: Mice were treated daily for 14 consecutive days. The SPT was conducted on day 11, and the forced swimming test (FST) was performed on day 14.” for “groups.”

[7] = target: T1, TRPC5 homomers; test: Whole-cell patch-clamp, agonist activation of TRPC5 homomers in HEK293T cells; format: cell-based
[8] = target: T2, TRPC1/5 heteromers; test: Whole-cell patch-clamp, agonist activation of TRPC1/5 (TRPC1 and TRPC5 co-transfected) in HEK293T cells; format: cell-based
Text: as §1

[9] = target: T3, hTRPC5 (Homo sapiens, UniProt Q9UL62); test: Calcium flux assay (Calcium 5 kit, EA 100 nM), hTRPC5 in HEK293T cells; format: cell-based; details: calcium flux screening, 10 μM
T3 construct: Full-length, non-tagged hTRPC1 and hTRPC5 constructs are used for calcium flux assays; expressed in transfected cells; host or cells: HEK293T
T3 sequence (Q9UL62 1-973): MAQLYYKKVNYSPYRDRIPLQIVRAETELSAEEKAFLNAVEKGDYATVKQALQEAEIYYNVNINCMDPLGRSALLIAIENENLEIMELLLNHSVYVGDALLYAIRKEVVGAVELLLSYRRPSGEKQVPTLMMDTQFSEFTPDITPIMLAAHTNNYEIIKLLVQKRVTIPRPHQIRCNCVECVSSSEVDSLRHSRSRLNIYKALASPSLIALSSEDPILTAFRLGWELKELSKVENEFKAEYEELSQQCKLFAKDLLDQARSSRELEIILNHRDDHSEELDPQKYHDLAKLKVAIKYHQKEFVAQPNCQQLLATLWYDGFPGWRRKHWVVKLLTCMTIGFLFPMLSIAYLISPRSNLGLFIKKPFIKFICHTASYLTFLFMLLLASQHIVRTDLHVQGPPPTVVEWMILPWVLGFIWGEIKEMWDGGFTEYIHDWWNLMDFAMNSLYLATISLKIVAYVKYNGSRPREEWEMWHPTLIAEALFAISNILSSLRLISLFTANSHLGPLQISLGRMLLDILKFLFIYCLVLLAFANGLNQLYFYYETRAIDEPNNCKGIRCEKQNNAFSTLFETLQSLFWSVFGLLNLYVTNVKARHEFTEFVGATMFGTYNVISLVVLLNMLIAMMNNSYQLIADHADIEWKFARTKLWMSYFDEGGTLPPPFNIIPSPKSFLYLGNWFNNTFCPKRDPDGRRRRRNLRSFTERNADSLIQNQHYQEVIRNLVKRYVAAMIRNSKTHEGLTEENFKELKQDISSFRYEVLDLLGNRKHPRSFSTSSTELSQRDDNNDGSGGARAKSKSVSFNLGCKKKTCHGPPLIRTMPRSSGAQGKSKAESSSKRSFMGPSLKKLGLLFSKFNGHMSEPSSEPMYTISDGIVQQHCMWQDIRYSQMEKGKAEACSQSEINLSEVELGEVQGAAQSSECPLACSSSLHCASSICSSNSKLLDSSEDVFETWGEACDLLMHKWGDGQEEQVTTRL
Description: Five minutes before measurement, molecules are added to each well at a final concentration of 10 µM under light-sensitive conditions.

[10] = target: T4, TRPC1/5 (Homo sapiens, UniProt P48995+Q9UL62); test: Calcium flux assay (Calcium 5 kit, EA 100 nM), hTRPC1 + hTRPC5 in HEK293T cells; format: cell-based; details: calcium flux screening, 10 μM
T4 construct: Full-length, non-tagged hTRPC1 and hTRPC5 constructs are used for calcium flux assays; expressed in transfected cells; host or cells: HEK293T
Description: Full-length, non-tagged hTRPC1 and hTRPC5 constructs are used for calcium flux assays. hTRPC5 is transfected alone or co-transfected with hTRPC1 into HEK293T cells (70–80% confluency) using PEI as the transfection reagent.
The culture medium is removed, and 100 µL of loading buffer (Calcium 5 Assay Kit) is added to each well, followed by a 1-h incubation at 37 °C in 5% CO2. Five minutes before measurement, molecules are added to each well at a final concentration of 10 µM under light-sensitive conditions.

[11] = tested on: mCPP-induced anxiety; test: Open-field test (OFT), mCPP-induced anxiety model; details: mCPP-induced anxiety-like mice; single dose
[12] = target: the molecule itself; test: cryo-EM structure; TRPC1/5 heteromer co-expressed, purified in tandem on Strep-Tactin and anti-Flag M2 resin and Superose 6 (25 mM Hepes pH 7.5, 150 mM NaCl, 1 mM DTT, LMNG/CHS/GDN); single-particle cryo-EM, 2.84 Å overall

T4 sequence (P48995 whole entry, one chain of several): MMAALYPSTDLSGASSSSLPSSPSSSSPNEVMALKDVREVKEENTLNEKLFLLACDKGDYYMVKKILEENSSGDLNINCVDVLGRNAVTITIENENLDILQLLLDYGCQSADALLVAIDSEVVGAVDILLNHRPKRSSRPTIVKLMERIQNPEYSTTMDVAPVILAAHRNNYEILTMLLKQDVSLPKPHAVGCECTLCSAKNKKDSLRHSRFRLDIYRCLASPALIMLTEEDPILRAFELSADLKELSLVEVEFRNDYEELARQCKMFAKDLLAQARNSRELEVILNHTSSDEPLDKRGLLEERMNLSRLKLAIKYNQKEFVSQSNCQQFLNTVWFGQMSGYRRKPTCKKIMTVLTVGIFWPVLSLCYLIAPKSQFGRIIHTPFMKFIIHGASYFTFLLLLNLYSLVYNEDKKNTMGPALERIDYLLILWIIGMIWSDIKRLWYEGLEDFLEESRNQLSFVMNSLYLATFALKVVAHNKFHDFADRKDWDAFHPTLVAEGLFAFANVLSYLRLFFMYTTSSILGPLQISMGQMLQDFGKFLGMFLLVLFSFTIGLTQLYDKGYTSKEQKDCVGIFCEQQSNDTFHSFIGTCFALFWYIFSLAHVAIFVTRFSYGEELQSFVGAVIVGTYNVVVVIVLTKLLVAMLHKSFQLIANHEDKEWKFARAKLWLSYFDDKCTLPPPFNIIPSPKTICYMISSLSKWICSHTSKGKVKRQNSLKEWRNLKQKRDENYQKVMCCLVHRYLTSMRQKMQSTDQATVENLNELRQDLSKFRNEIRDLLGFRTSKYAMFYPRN
T2 sequence (P48995 whole entry, one chain of several): as above

CN(C)CCCCCCn1c(=O)c2c(nc(Oc3cccc(Cl)c3)n2Cc2ccc(Cl)cc2)n(C)c1=O [H10]
HillSlope, TRPC5 [1]: 0.3841
IC50 [1]: 503 nM
IC50 [2]: 2.57 nM

Cn1c(=O)n(CCCO)c(=O)c2c1nc(Oc1cccc(Cl)c1)n2Cc1ccc(Cl)cc1 [HC-070]
OFT total distance traveled [3]: increased total distance traveled
body weight [4]: significantly increased body weight
food intake [4]: elevated food intake

CNCCC(Oc1ccc(C(F)(F)F)cc1)c1ccccc1 (centres unmarked) [fluoxetine, reference compound]
sucrose intake (SPT), repeated dosing ([5]; 11 days once-daily oral, vs vehicle): significantly improved sucrose intake
sucrose preference (SPT), single dose ([5]; single oral dose, JD03-02 30 mg/kg): no immediate effect; also recorded: ineffective
immobility (FST), repeated dosing [6]: reduced immobility

Cn1c(=O)n(CCCO)c(=O)c2c1nc(Oc1ccc(Cl)c(OC(F)(F)F)c1)n2Cc1ccc(Cl)cc1 [AM237]
activation of TRPC5 homomers (in words) [7]: activates TRPC5 homomers
activation of TRPC1/5 heteromers (in words) [8]: not TRPC1/5 heteromers

CC(C)NCCn1c(=O)c2c(nc(Oc3cccc(Cl)c3)n2Cc2ccc(Cl)cc2)n(C)c1=O [H02]
inhibitory activity toward TRPC5 homomers (in words) [9]: markedly reduced inhibitory activity
inhibition of TRPC1/5 heteromers (in words) [10]: moderate inhibition

Cn1c(=O)n(CCNCc2ccccc2)c(=O)c2c1nc(Oc1cccc(Cl)c1)n2Cc1ccc(Cl)cc1 [H03]
inhibitory activity toward TRPC5 homomers (in words) [9]: restored TRPC5 homomer inhibition

Semaglutide [reference compound]
body weight [4]: effectively reduced both weight and appetite
food intake [4]: effectively reduced both weight and appetite

CN1C(=O)CN=C(c2ccccc2)c2cc(Cl)ccc21 [diazepam, reference compound]
OFT total distance traveled [11]: no significant effect

Cn1c(=O)n(CCN2CCCC2)c(=O)c2c1nc(Oc1cccc(Cl)c1)n2Cc1ccc(Cl)cc1 [H01]
inhibitory activity toward TRPC5 homomers (in words) [9]: markedly reduced inhibitory activity
inhibition of TRPC1/5 heteromers (in words) [10]: moderate inhibition

B1: C-terminal truncated (210 residues) mouse TRPC5 with triple Flag tag and MBP on its N terminus (domain or fragment, UniProt Q9QX29 1-765, looked up)
chain: MAQLYYKKVNYSPYRDRIPLQIVRAETELSAEEKAFLSAVEKGDYATVKQALQEAEIYYNVNINCMDPLGRSALLIAIENENLEIMELLLNHSVYVGDALLYAIRKEVVGAVELLLSYRKPSGEKQVPTLMMDTQFSEFTPDITPIMLAAHTNNYEIIKLLVQKRVTIPRPHQIRCNCVECVSSSEVDSLRHSRSRLNIYKALASPSLIALSSEDPILTAFRLGWELKELSKVENEFKAEYEELSQQCKLFAKDLLDQARSSRELEIILNHRDDHSEELDPQKYHDLAKLKVAIKYHQKEFVAQPNCQQLLATLWYDGFPGWRRKHWVVKLLTCMTIGFLFPMLSIAYLISPRSNLGLFIKKPFIKFICHTASYLTFLFMLLLASQHIVRTDLHVQGPPPTVVEWMILPWVLGFIWGEIKEMWDGGFTEYIHDWWNLMDFAMNSLYLATISLKIVAYVKYNGSRPREEWEMWHPTLIAEALFAISNILSSLRLISLFTANSHLGPLQISLGRMLLDILKFLFIYCLVLLAFANGLNQLYFYYETRAIDEPNNCKGIRCEKQNNAFSTLFETLQSLFWSVFGLLNLYVTNVKARHEFTEFVGATMFGTYNVISLVVLLNMLIAMMNNSYQLIADHADIEWKFARTKLWMSYFDEGGTLPPPFNIIPSPKSFLYLGNWFNNTFCPKRDPDGRRRRHNLRSFTERHADSLIQNQHYQEVIRNLVKRYVAAMIRNSKTNEGLTEENFKELKQDISSFRYEVLDLLGNRK
notes: TRPC5, mouse, lacking the 210 C-terminal residues; Three copies of this chain stand in the heterotetramer with one TRPC1 subunit; The results call the complex 'human TRPC1/5' although the TRPC5 construct is mouse; also called Cryo-TRPC5; truncated mTRPC5; not shown: triple Flag, N-terminal, kept
binding result [12]: binds
